Test results: ChEMBL document CHEMBL5370599, “Discovery of a 53BP1 Small Molecule Antagonist Using a Focused DNA-Encoded Library Screen” (J Med Chem, 2023)

How the values were obtained:
[1] = target: TP53-binding protein 1 (Homo sapiens, UniProt Q12888); assay: Displacement of Biotin-p53K381acK382me2 from N-terminal his6-tagged 53BP1 (1484 to 1603 residues) (unknown origin) expressed in Rosetta2 BL21 (DE3) pLysS competent cells by TR-FRET assay; assay type: single protein
[2] = test system: HEK-293T; assay: Cytotoxicity against HEK293T cells assessed as reduction in cell viability measured upto 200 uM by celltiterglo 2.0 assay; assay type: toxicity, cell-based; settings: human
[3] = test system: TERT-RPE1; assay: Cytotoxicity against human RPE-1 cells assessed as reduction in cell viability measured upto 200 uM by celltiterglo 2.0 assay; assay type: toxicity, cell-based; settings: tert-rpe1, 200 µM

Sequence of TP53-binding protein 1 (Q12888 whole entry, the tested form may be a part): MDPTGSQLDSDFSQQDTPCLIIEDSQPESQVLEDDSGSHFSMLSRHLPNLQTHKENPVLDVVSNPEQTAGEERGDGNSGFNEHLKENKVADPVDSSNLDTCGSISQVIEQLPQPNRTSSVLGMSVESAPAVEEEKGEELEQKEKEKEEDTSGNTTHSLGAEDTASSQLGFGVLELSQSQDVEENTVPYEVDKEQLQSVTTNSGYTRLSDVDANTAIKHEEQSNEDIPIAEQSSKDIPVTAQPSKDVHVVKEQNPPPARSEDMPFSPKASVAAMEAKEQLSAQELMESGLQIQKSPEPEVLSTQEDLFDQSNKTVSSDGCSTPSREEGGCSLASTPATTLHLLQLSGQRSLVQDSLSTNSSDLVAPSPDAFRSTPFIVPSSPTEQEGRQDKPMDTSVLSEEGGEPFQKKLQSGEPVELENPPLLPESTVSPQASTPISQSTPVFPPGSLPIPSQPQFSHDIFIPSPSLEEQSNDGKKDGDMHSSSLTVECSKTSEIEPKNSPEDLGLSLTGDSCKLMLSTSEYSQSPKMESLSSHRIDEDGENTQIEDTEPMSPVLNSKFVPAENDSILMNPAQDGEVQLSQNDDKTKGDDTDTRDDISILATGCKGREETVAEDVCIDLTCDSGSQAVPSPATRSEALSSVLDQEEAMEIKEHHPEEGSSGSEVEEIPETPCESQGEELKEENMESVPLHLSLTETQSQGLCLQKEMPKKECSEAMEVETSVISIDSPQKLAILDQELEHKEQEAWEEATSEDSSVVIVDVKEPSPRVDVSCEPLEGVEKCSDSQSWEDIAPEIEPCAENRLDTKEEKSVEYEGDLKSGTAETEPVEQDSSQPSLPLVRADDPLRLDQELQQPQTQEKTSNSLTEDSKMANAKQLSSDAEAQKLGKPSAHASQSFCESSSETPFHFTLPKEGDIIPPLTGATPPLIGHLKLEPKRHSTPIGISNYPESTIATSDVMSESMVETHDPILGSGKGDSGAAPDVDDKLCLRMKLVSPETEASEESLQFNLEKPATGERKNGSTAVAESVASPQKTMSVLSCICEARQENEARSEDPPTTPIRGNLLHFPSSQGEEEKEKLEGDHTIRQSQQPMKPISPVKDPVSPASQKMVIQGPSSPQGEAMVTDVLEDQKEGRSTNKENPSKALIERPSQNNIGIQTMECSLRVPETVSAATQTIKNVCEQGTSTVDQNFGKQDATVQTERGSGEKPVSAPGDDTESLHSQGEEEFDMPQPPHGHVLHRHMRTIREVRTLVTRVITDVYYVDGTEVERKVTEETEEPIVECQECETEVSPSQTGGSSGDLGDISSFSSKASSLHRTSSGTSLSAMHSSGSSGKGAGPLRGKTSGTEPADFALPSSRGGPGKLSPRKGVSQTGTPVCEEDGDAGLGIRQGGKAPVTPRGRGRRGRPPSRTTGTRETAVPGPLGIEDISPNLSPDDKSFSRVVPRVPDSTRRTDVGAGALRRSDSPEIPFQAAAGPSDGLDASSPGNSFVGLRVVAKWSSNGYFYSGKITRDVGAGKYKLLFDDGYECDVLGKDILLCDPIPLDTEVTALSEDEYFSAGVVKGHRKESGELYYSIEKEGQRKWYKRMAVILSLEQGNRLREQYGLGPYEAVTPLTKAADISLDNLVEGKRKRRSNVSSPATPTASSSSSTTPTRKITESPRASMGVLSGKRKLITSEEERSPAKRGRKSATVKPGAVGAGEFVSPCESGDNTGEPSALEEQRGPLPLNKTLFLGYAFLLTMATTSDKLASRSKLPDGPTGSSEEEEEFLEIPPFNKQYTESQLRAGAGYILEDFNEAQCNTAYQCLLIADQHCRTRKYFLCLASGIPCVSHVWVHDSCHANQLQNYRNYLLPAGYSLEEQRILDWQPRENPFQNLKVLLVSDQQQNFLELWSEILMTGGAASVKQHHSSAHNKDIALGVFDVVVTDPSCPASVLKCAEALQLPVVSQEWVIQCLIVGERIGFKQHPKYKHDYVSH

Row | SMILES | IC50 [1] | also measured
1 | CN1CCN(c2ccnc(C(=O)N3CCC[C@@H]3C(=O)Nc3cccc(-c4ccc(C(N)=O)cc4)c3)c2)CC1 | 5 µM | –
2 | CN1CCN(c2ccnc(C(=O)N3CCC[C@H](C(=O)Nc4cccc(-c5ccccc5)n4)C3)c2)CC1 | 7.4 µM | –
3 | CN1CCN(c2ccnc(C(=O)N3CCC[C@H](C(=O)Nc4cncc(-c5ccccc5)c4)C3)c2)CC1 | 5.9 µM | –
4 | CN1CCN(c2ccnc(C(=O)N3CCC[C@H](C(=O)Nc4cc(-c5cccnc5)ncn4)C3)c2)CC1 | > 100 µM | –
5 | CN1CCN(c2ccnc(C(=O)N3CCC[C@H](C(=O)Nc4cccc(-c5ccc6c(c5)CNC6)c4)C3)c2)CC1.Cl.Cl.Cl | – | Activity [2]: Non-Toxic; Activity [3]: Non-Toxic
6 | CN1CCN(c2ccnc(C(=O)N3CCC[C@H](C(=O)Nc4cccc(N5CCOCC5)c4)C3)c2)CC1 | 32 µM | –
7 | CN1CCN(c2ccnc(C(=O)N3CCC[C@H](C(=O)Nc4cccc(-c5ccc6[nH]cnc6c5)c4)C3)c2)CC1 | 38 µM | –
8 | CN1CCN(c2ccnc(C(=O)N3CCC[C@H](C(=O)Nc4cccc(-c5cccc(C(=O)O)c5)c4)C3)c2)CC1 | 83 µM | –
9 | CN1CCN(c2ccnc(C(=O)N3CCC[C@H](C(=O)Nc4cccc(-c5ccncc5)c4)C3)c2)CC1 | 6.6 µM | –
10 | COC(=O)c1cccc(-c2cccc(NC(=O)[C@H]3CCCN(C(=O)c4cc(N5CCN(C)CC5)ccn4)C3)c2)c1 | 10 µM | –
11 | CN1CCN(c2ccnc(C(=O)N3CCC[C@H](C(=O)Nc4cccc(-c5ccc6c(c5)CCCN6)c4)C3)c2)CC1 | 12 µM | –
12 | CN1CCN(c2ccnc(C(=O)N3CCC[C@H](C(=O)Nc4ccccc4)C3)c2)CC1 | 22 µM | –
13 | CN1CCN(c2ccnc(C(=O)N3CCC[C@H](C(=O)Nc4cccc(-c5ccc6c(c5)CCNC6)c4)C3)c2)CC1 | 28 µM | –
14 | CC(C)N1CCN(c2ccnc(C(=O)N3CCC[C@H](C(=O)Nc4cccc(-c5ccc(C(N)=O)cc5)c4)C3)c2)CC1 | 4.1 µM | –
15 | CN1CCN(c2ccnc(C(=O)N3CCC[C@H](C(=O)Nc4cccc(-c5cccc(C(N)=O)c5)c4)C3)c2)CC1 | 1.9 µM | –
16 | CN1CCN(c2ccnc(C(=O)N3CC[C@H](C(=O)Nc4cccc(-c5ccc(C(N)=O)cc5)c4)C3)c2)CC1 | 2.2 µM | –
17 | CCCN1CCN(c2ccnc(C(=O)N3CCC[C@H](C(=O)Nc4cccc(-c5ccc(C(N)=O)cc5)c4)C3)c2)CC1 | 14 µM | –
18 | CN1CCN(c2ccnc(C(=O)N3CCC[C@H](C(=O)Nc4cccc(-c5ccc6c(c5)CNC6=O)c4)C3)c2)CC1 | 3.4 µM | –

Further lines, with some results ahead:

Row | IC50 [1] | SMILES | also measured
19 | > 100 µM | CNC(=O)[C@H]1CCCN(C(=O)c2cc(N3CCN(C)CC3)ccn2)C1 | –
20 | 18 µM | CN1CCN(c2ccnc(C(=O)N3CCC[C@H](C(=O)Nc4cccc(-c5ccccn5)c4)C3)c2)CC1 | –
21 | 5.6 µM | CNC(=O)c1ccc(-c2cccc(NC(=O)[C@H]3CCCN(C(=O)c4cc(N5CCN(C)CC5)ccn4)C3)c2)cc1 | –
22 | 7.8 µM | CN1CCN(c2ccnc(C(=O)N3CCC[C@H](C(=O)Nc4cccc(-c5ccc6c(c5)CCN6)c4)C3)c2)CC1 | –
23 | 3.8 µM | CN1CCN(c2ccnc(C(=O)N3CCC[C@H](C(=O)Nc4cccc(-c5ccccc5)c4)C3)c2)CC1 | –
24 | 10 µM | COC(=O)c1ccc(-c2cccc(NC(=O)[C@H]3CCCN(C(=O)c4cc(N5CCN(C)CC5)ccn4)C3)c2)cc1 | –
25 | 1.3 µM | CN1CCN(c2cccc(C(=O)N3CCC[C@H](C(=O)Nc4cccc(-c5ccc(C(N)=O)cc5)c4)C3)c2)CC1 | –
26 | 5.7 µM | CN1CCN(c2ccnc(C(=O)N3CC[C@H]3C(=O)Nc3cccc(-c4ccc(C(N)=O)cc4)c3)c2)CC1 | –
27 | 15 µM | CN1CCN(c2ccnc(C(=O)N3CCC[C@H](C(=O)Nc4cccc(-c5ccc6[nH]ncc6c5)c4)C3)c2)CC1 | –
28 | 1.4 µM | CCN1CCN(c2ccnc(C(=O)N3CCC[C@H](C(=O)Nc4cccc(-c5ccc(C(N)=O)cc5)c4)C3)c2)CC1 | –
29 | 8.1 µM | CN1CCN(c2ccnc(C(=O)N3CCC[C@H](C(=O)Nc4cccc(-c5ccc(C(=O)O)cc5)c4)C3)c2)CC1 | –
30 | 11 µM | CNC(=O)c1cccc(-c2cccc(NC(=O)[C@H]3CCCN(C(=O)c4cc(N5CCN(C)CC5)ccn4)C3)c2)c1 | –
31 | 15 µM | CN1CCN(c2ccnc(C(=O)N3CCC[C@@H](C(=O)Nc4cccc(-c5ccc(C(N)=O)cc5)c4)C3)c2)CC1 | –
32 | 44 µM | CN1CCN(c2ccnc(C(=O)N3CCC[C@H](C(=O)Nc4cccc(N5CCNCC5)c4)C3)c2)CC1 | –
